# Assays:
# [1] = system: CD19 expression on ALL and DLBCL cell lines; assay: CD19 expression on cell lines by flow cytometry after Bryostatin 1 exposure; format: cell-based, human; conditions: 1 ng/ml, 24 hours
# Protocol: FIGS. 3A-3D: (FIG. 3A) Four cell lines (Nalm6, Kopn8, Pfieffer and Toldeo) were co-incubated with 1 ng/ml Bryostatin 1 for 24 hours and analyzed using flow cytometry one day after Bryostatin 1 exposure. Site density was analyzed using standardized Quantibrite-PE beads. (FIG. 3B) Cell lines were co-incubated with 1 ng/ml Bryostatin 1 for 24 hours, washed, and analyzed using flow cytometry at 1 and 7 days after Bryostatin 1 exposure. Fold change was calculated based on site density: (Cell line Bryostatin 1—Cell line DMSO)/Cell line DMSO. (FIG. 3C) NSG mice were injected with 1×10^6 GPF-positive Nalm6 leukemia cells on Day 0. Bryostatin 1 was administered at 0.8 μg/kg on Day 3. Mice were sacrificed 7 and 12 days after Bryostatin 1 injection and CD22 was evaluated by flow cytometry. (FIG. 3D) CD22-low relapse PDX cell line was cultured in vitro with 1 nmol/L Bryostatin 1 for 24 hours and measured for CD22 expression using CD22 antibody. […]
# FACS analysis of cell surface CAR and protein expression was performed using an LSR II Fortessa flow cytometer (BD Biosciences). CD22-CAR was detected by incubation with 22-Fc (R&D Systems), followed by incubation with human IgG-specific PE-F(ab)2 (Thermo Fisher Scientific). […] CD22 site density was determined using QuantiBrite-PE beads (BD Biosciences) using methods previously described (Jasper et al., Cytometry B Clin Cytom 80(2):83-90, 2011). […]
# [2] = target: T1, PKC-βII (Homo sapiens, UniProt P05771); assay: PKC-βII western blot of Bryostatin 1-treated cell lines; format: cell-based; conditions: 24 hours exposure
# T1 construct: Leukemia cell protein extracts were prepared by lysing cells with RIPA buffer; endogenous in cells; host or cells: Toledo, Kopn8, Nalm6
# T1 sequence (P05771 1-673 isoform P05771-2): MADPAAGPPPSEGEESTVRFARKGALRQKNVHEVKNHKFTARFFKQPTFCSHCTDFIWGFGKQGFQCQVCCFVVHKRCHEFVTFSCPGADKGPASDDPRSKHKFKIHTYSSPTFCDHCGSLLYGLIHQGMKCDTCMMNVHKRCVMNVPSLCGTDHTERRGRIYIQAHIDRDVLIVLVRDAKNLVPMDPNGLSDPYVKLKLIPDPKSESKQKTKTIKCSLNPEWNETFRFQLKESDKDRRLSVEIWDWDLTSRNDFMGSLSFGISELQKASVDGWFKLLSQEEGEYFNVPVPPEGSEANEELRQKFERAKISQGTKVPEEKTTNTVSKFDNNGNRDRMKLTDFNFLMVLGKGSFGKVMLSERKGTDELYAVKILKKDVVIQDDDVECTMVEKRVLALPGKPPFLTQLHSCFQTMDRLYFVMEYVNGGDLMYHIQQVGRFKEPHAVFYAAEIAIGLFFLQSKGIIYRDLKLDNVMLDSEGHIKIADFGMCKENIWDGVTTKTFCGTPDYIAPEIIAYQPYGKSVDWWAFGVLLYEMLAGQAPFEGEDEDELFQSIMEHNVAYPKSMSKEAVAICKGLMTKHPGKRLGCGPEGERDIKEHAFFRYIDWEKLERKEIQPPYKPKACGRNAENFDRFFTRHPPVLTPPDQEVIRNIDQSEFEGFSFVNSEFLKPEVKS
# Protocol: FIGS. 10A-10E: (FIG. 10A) Three cell lines (Toldeo, Kopn8 and Nalm6) were co-incubated with Bryostatin 1 at varying concentrations for 24 hours. At 24 hours, cells were collected for protein kinase C (PKC)-βII isoform analysis by western blot. (FIG. 10B) KOPN8 or SEM cell lines were exposed to Bryostatin 1 for 16, 24, 48 or 72 hours. RNA was extracted from cells and analyzed using RNAseq. (FIG. 10C) Immunofluorescent staining of CD22 was conducted through permeabilization followed by staining of CD22. (FIG. 10D) Four cell lines were co-incubated with various combinations of Enzastaurin (10 μM), Staurosporine (100 μM), or Bryostatin 1 (1 nM) for 24 hours. CD22 expression was assessed using flow cytometry. MFI fold change=CD22 MFI^Bryostatin1/CD22 MFI^DMSO. (FIG. 10E) Cell lines were co-incubated with 1 nM Bryostatin 1 for 24 hours and measured for CD22 expression using CD22-PE antibody. MFI fold change=CD22 MFI^Bryostatin 1/CD22 MFI^DMSO.
# Leukemia cell protein extracts were prepared by lysing cells with RIPA buffer and heating at 98° C. for 5 minutes. The proteins were separated on an SDS-PAGE gel and transferred to a nitrocellulose membrane. The membranes were immunoblotted with antibodies PKC-βII and GAPDH (Abcam), overnight at 4° C. […]
smiles,measurement,setting,value
CCC/C=C/C=C/C(=O)O[C@H]1/C(=C/C(=O)OC)C[C@H]2C[C@H]([C@@H](C)O)OC(=O)C[C@H](O)C[C@@H]3C[C@H](OC(C)=O)C(C)(C)[C@](O)(C[C@@H]4C/C(=C/C(=O)OC)C[C@H](/C=C/C(C)(C)[C@]1(O)O2)O4)O3 [Bryostatin 1],CD19 expression on ALL,[1],did not alter
same,CD19 expression on DLBCL,[1],modest increase
same,PKCβII protein levels on ALL,[2],decreased

# — US11939377B2, “Affinity matured CD22-specific monoclonal antibody and uses thereof” (The U.S.A., as represented by the Secretary, Department of …, priority 2018, dated 2024)
